Measured values from US6737383B1, “Herbicidal oxadiazolidines” (priority 1999, dated 2004).

Key:
corn = experiment: Test B pre/postemergence corn; assay type: in vivo, Zea mays
Method in brief: (§1)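 Test chemicals in a non-phytotoxic solvent mixture with surfactant were sprayed preemergence onto planted seeds and postemergence onto plants 2 to 18 cm tall (1- to 4-leaf stage). After twelve to sixteen days in a greenhouse, injury was visually rated against untreated controls from 0 (no effect) to 10 (complete control).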

soybean = experiment: Test B pre/postemergence soybean; assay type: in vivo, Glycine max
Method in brief: as §1

giant foxtail = experiment: Test B pre/postemergence giant foxtail; assay type: in vivo, Setaria faberii
Method in brief: as §1

cocklebur = experiment: Test B pre/postemergence cocklebur; assay type: in vivo, Xanthium strumarium
Method in brief: as §1

blackgrass = experiment: Test B pre/postemergence blackgrass; assay type: in vivo, Alopecurus myosuroides
Method in brief: as §1

smallflower flatsedge = experiment: Test B flood test smallflower flatsedge; assay type: in vivo, Cyperus difformis
Method in brief: (§2)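 Flood test on plants grown to the 2-leaf stage; treated plants kept in greenhouse twelve to sixteen days, then visually rated against controls on a 0 (no effect) to 10 (complete control) scale.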

bamyardgrass = experiment: Test B flood test barnyardgrass; assay type: in vivo, Echinochloa crus-galli
Method in brief: as §2

bedstraw = experiment: Test B pre/postemergence bedstraw; assay type: in vivo, Galium aparine
Method in brief: as §1

wheat = experiment: Test B pre/postemergence wheat; assay type: in vivo, Triticum aestivum
Method in brief: as §1

crabgrass = experiment: Test B pre/postemergence crabgrass; assay type: in vivo, Digitaria sanguinalis
Method in brief: as §1

morningglory = experiment: Test B pre/postemergence morningglory; assay type: in vivo, Ipomoea hederacea
Method in brief: as §1

wild oat = experiment: Test B pre/postemergence wild oat; assay type: in vivo, Avena fatua
Method in brief: as §1

surinam grass = experiment: Test B pre/postemergence surinam grass; assay type: in vivo, Brachiaria decumbens
Method in brief: as §1

duck salad = experiment: Test B flood test duck salad; assay type: in vivo, Heteranthera limosa
Method in brief: as §2

rice = experiment: Test B flood test rice; assay type: in vivo, Oryza sativa
Method in brief: as §2

purple nutsedge = experiment: Test B pre/postemergence purple nutsedge; assay type: in vivo, Cyperus rotundus
Method in brief: as §1

velvetleaf = experiment: Test B pre/postemergence velvetleaf; assay type: in vivo, Abutilon theophrasti
Method in brief: as §1

[1] = Preemergence, Rate 62 g/ha, scale of 0 to 10 where 0 is no effect and 10 is complete control
[2] = Preemergence, Rate 250 g/ha, scale of 0 to 10 where 0 is no effect and 10 is complete control
[3] = Preemergence, Rate 500 g/ha, scale of 0 to 10 where 0 is no effect and 10 is complete control
[4] = Rate 62 g/ha, Postemergence, scale 0 to 10 (0 no effect, 10 complete control)
[5] = Rate 125 g/ha, Postemergence, scale of 0 to 10 where 0 is no effect and 10 is complete control
[6] = Rate 125 g/ha, Preemergence, scale of 0 to 10 where 0 is no effect and 10 is complete control
[7] = Rate 250 g/ha, Postemergence, scale of 0 to 10 where 0 is no effect and 10 is complete control
[8] = Rate 500 g/ha, Postemergence, scale 0 to 10, 0 no effect, 10 complete control
[9] = Rate 62 g/ha, headed Pre-emergence (flood test species), scale 0 to 10 (0 no effect, 10 complete control)
[10] = Rate 125 g/ha, Pre-emergence, flood test species, scale 0 to 10 where 0 is no effect and 10 is complete control
[11] = Rate 250 g/ha, Pre-emergence, flood-test species, scale 0 to 10, 0 is no effect, 10 is complete control
[12] = Rate 500 g/ha, Pre-emergence, flood test species, scale 0 to 10 (0 no effect, 10 complete control)

In the case of `CCN(CC)C(=O)n1oc(=O)n(C2CC2)c1=O` [Compound 297], the “Corn plant response rating” value (corn; [1]) is reported as 0, the “Corn plant response rating” value (corn; [2]) is reported as 0 and the “Plant response rating, Corn” value (corn; [3]) is reported as 0. For the same compound, the “Corn plant response rating” value (corn; [4]) was 0, the “Corn plant response rating” value (corn; [5]) was 0 and the “Corn plant response rating” value (corn; [6]) was 0. For the same compound, the “Plant response rating, Corn” value (corn; [7]) was 0, the “Corn plant response rating” value (corn; [8]) was 0 and the “Soybean plant response rating” value (soybean; [1]) was 0. The “Soybean plant response rating” value (soybean; [2]) was 0, the “Plant response rating, Soybean” value (soybean; [3]) was 0 and the “Soybean plant response rating” value (soybean; [4]) was 2. The “Soybean plant response rating” value (soybean; [5]) was 3, the “Soybean plant response rating” value (soybean; [6]) was 0 and the “Plant response rating, Soybean” value (soybean; [7]) was 3. For the same compound, the “Giant foxtail plant response rating” value (giant foxtail; [1]) was 0, the “Giant foxtail plant response rating” value (giant foxtail; [2]) was 7 and the “Plant response rating, Giant foxtail” value (giant foxtail; [3]) was 7. For the same compound, the “Giant foxtail plant response rating” value (giant foxtail; [4]) was 0, the “Giant foxtail plant response rating” value (giant foxtail; [5]) was 0 and the “Giant foxtail plant response rating” value (giant foxtail; [6]) was 0. The “Plant response rating, Giant foxtail” value (giant foxtail; [7]) was 0, the “Cocklebur plant response rating” value (cocklebur; [1]) was 0 and the “Cocklebur plant response rating” value (cocklebur; [2]) was 0. For the same compound, the “Plant response rating, Cocklebur” value (cocklebur; [3]) was 0, the “Cocklebur plant response rating” value (cocklebur; [4]) was 0 and the “Cocklebur plant response rating” value (cocklebur; [5]) was 0. For the same compound, the “Cocklebur plant response rating” value (cocklebur; [6]) was 0, the “Plant response rating, Cocklebur” value (cocklebur; [7]) was 0 and the “Cocklebur plant response rating” value (cocklebur; [8]) was 0. The “Blackgrass plant response rating” value (blackgrass; [1]) was 0, the “Blackgrass plant response rating” value (blackgrass; [2]) was 0 and the “Plant response rating, Blackgrass” value (blackgrass; [3]) was 0. The “Blackgrass plant response rating” value (blackgrass; [4]) was 0, the “Blackgrass plant response rating” value (blackgrass; [5]) was 0 and the “Blackgrass plant response rating” value (blackgrass; [6]) was 0. For the same compound, the “Plant response rating, Blackgrass” value (blackgrass; [7]) was 0, the “Blackgrass plant response rating” value (blackgrass; [8]) was 0 and the “S. Flatsedge plant response rating” value (smallflower flatsedge; [9]) was 0. For the same compound, the “S. Flatsedge plant response rating” value (smallflower flatsedge; [10]) was 0, the “S. Flatsedge plant response rating” value (smallflower flatsedge; [11]) was 3 and the “S. Flatsedge plant response rating” value (smallflower flatsedge; [12]) was 3. For the same compound, the “Barnyardgrass plant response rating” value (bamyardgrass; [9]) was 0, the “Barnyardgrass plant response rating” value (bamyardgrass; [10]) was 0 and the “Barnyardgrass plant response rating” value (bamyardgrass; [11]) was 0. For the same compound, the “Barnyardgrass plant response rating” value (bamyardgrass; [12]) was 0, the “Bedstraw plant response rating” value (bedstraw; [2]) was 0 and the “Plant response rating, Bedstraw” value (bedstraw; [3]) was 0. For the same compound, the “Bedstraw plant response rating” value (bedstraw; [4]) was 0, the “Bedstraw plant response rating” value (bedstraw; [5]) was 0 and the “Bedstraw plant response rating” value (bedstraw; [6]) was 0. The “Wheat plant response rating” value (wheat; [1]) was 0, the “Wheat plant response rating” value (wheat; [2]) was 0 and the “Plant response rating, Wheat” value (wheat; [3]) was 0. The “Wheat plant response rating” value (wheat; [4]) was 0, the “Wheat plant response rating” value (wheat; [5]) was 0 and the “Wheat plant response rating” value (wheat; [6]) was 0. For the same compound, the “Plant response rating, Wheat” value (wheat; [7]) was 0, the “Crabgrass plant response rating” value (crabgrass; [1]) was 0 and the “Crabgrass plant response rating” value (crabgrass; [2]) was 7. For the same compound, the “Plant response rating, Crabgrass” value (crabgrass; [3]) was 7, the “Crabgrass plant response rating” value (crabgrass; [4]) was 0 and the “Crabgrass plant response rating” value (crabgrass; [5]) was 0. The “Crabgrass plant response rating” value (crabgrass; [6]) was 2, the “Plant response rating, Crabgrass” value (crabgrass; [7]) was 0 and the “Morningglory plant response rating” value (morningglory; [1]) was 0. For the same compound, the “Morningglory plant response rating” value (morningglory; [2]) was 0, the “Plant response rating, Morningglory” value (morningglory; [3]) was 0 and the “Morningglory plant response rating” value (morningglory; [4]) was 0. For the same compound, the “Morningglory plant response rating” value (morningglory; [5]) was 0, the “Morningglory plant response rating” value (morningglory; [6]) was 0 and the “Plant response rating, Morningglory” value (morningglory; [7]) was 0. The “Wild oats plant response rating” value (wild oat; [1]) was 0, the “Wild oats plant response rating” value (wild oat; [2]) was 0 and the “Plant response rating, Wild oats” value (wild oat; [3]) was 0. The “Wild oats plant response rating” value (wild oat; [4]) was 0, the “Wild oats plant response rating” value (wild oat; [5]) was 0 and the “Plant response rating, Wild oats” value (wild oat; [7]) was 0. For the same compound, the “B. signalgrass plant response rating” value (surinam grass; [1]) was 0, the “B. signalgrass plant response rating” value (surinam grass; [2]) was 0 and the “Plant response rating, B. signalgrass” value (surinam grass; [3]) was 0. The “B. signalgrass plant response rating” value (surinam grass; [4]) was 0, the “B. signalgrass plant response rating” value (surinam grass; [5]) was 0 and the “B. signalgrass plant response rating” value (surinam grass; [6]) was 0. For the same compound, the “Plant response rating, B. signalgrass” value (surinam grass; [7]) was 0, the “B. signalgrass plant response rating” value (surinam grass; [8]) was 0 and the “Ducksalad plant response rating” value (duck salad; [9]) was 0. For the same compound, the “Ducksalad plant response rating” value (duck salad; [10]) was 0, the “Ducksalad plant response rating” value (duck salad; [11]) was 0 and the “Ducksalad plant response rating” value (duck salad; [12]) was 0. The “Rice plant response rating” value (rice; [9]) was 0, the “Rice plant response rating” value (rice; [10]) was 0 and the “Rice plant response rating” value (rice; [11]) was 0. For the same compound, the “Rice plant response rating” value (rice; [12]) was 0, the “Nutsedge plant response rating” value (purple nutsedge; [2]) was 0 and the “Plant response rating, Nutsedge” value (purple nutsedge; [3]) was 0. For the same compound, the “Nutsedge plant response rating” value (purple nutsedge; [4]) was 0, the “Nutsedge plant response rating” value (purple nutsedge; [5]) was 0 and the “Nutsedge plant response rating” value (purple nutsedge; [6]) was 0. The “Plant response rating, Nutsedge” value (purple nutsedge; [7]) was 0, the “Velvetleaf plant response rating” value (velvetleaf; [1]) was 0 and the “Velvetleaf plant response rating” value (velvetleaf; [2]) was 0. For the same compound, the “Plant response rating, Velvetleaf” value (velvetleaf; [3]) was 0, the “Velvetleaf plant response rating” value (velvetleaf; [4]) was 0 and the “Velvetleaf plant response rating” value (velvetleaf; [5]) was 0. For the same compound, the “Velvetleaf plant response rating” value (velvetleaf; [6]) was 0 and the “Plant response rating, Velvetleaf” value (velvetleaf; [7]) was 0.
